From patent US8962622B2, “Benzotriazole kinase modulators” (Roche Palo Alto LLC, priority 2006, dated 2015)

| SMILES | melting point [°C] |
| --- | --- |
| OC[C@H]1CCCC[C@H]1Nc1nccc(-n2nnc3ccccc32)n1 [Example 9, (1S,2R)-[2-(4-benzotriazol-1-yl-pyrimidin-2-ylamino)-cyclohexyl]-methanol] | 206.1 to 207.8 |
| O=C1CCC(=O)N1[C@H]1CC[C@H](Nc2nccc(-n3nnc4ccccc43)n2)CC1 [Example 15, 1-[trans-4-(4-benzotriazol-1-yl-pyrimidin-2-ylamino)-cyclohexyl]-pyrrolidine-2,5-dione] | 205 to 210 |
| CN(c1nccc(-n2nnc3ccccc32)n1)[C@H]1CC[C@H](N(C)S(C)(=O)=O)CC1 [Example 14, N-{trans-4-[(4-benzotriazol-1-yl-pyrimidin-2-yl)-methyl-amino]-cyclohexyl}-N-methyl-methanesulfonamide] | 203.5 to 204 |

Second part, the compound after the results:

| melting point [°C] | SMILES |
| --- | --- |
| 202.1 to 205.6 | CC1(O)CCC(Nc2nccc(-n3nnc4ccccc43)n2)CC1 (stereo not drawn) [Example 17, 4-(4-benzotriazol-1-yl-pyrimidin-2-ylamino)-1-methyl-cyclohexanol] |
| 233.5 to 235.4 | COCC(=O)N[C@H]1CC[C@H](Nc2nccc(-n3nnc4ccccc43)n2)CC1 [Example 24, trans-N-[4-(4-Benzotriazol-1-yl-pyrimidin-2-ylamino)-cyclohexyl]-2-methoxy-acetamide] |
| 204.9 to 206.5 | O=C1CCC(Nc2nccc(-n3nnc4ccccc43)n2)CC1 [Example 16, 4-(4-benzotriazol-1-yl-pyrimidin-2-ylamino)-cyclohexanone] |
